We go through four compounds from US9387218B2, “Composition for the treatment of inflammatory and immune disorders” (EAGLEPHARMA PTY LTD, priority 2012, dated 2016).

In one assay the test system is osteoarthritis. Particulars: literature study; cited from earlier work.
The test system of assay [1] is seasonal allergic rhinitis. The conditions noted are these: oral, 2600 mg to 5200 mg per day; cited from earlier work.
Another assay relates to murine macrophages. Particulars: in vitro; cited from earlier work.
A further assay deals with Solar Keratosis. The experiment in a line: Summary of treatments: Solar Keratosis. Type of assay: in vivo, human. Particulars: patient groups. More on the design: key: The + values in the table represent a qualitative assessment of the treatment of symptoms in the patient groups tests; ++: The + values in the table represent a qualitative assessment of the treatment of symptoms in the patient groups tests; +++: The + values in the table represent a qualitative assessment of the treatment of symptoms in the patient groups tests; ++++: The + values in the table represent a qualitative assessment of the treatment of symptoms in the patient groups tests; +++++: 5+ indicating the greatest improvement in symptoms.

The next assay deals with psoriasis. Put plainly: Summary of treatments: Psoriasis. Type of assay: in vivo, human. Also noted: key: The + values in the table represent a qualitative assessment of the treatment of symptoms in the patient groups tests; ++: The + values in the table represent a qualitative assessment of the treatment of symptoms in the patient groups tests; +++: The + values in the table represent a qualitative assessment of the treatment of symptoms in the patient groups tests; ++++: The + values in the table represent a qualitative assessment of the treatment of symptoms in the patient groups tests; +++++: 5+ indicating the greatest improvement in symptoms. Particulars: patient groups.

Another assay concerns chondrocytes. The conditions noted are these: in vitro; cited from earlier work.
For a further assay, the system named is TNF-α production. The conditions noted are these: in vitro; cited from earlier work.

Molecules are shown by their SMILES.

As for `CS(C)(=O)=O` [MSM, Methylsulphonylmethane], the effect in osteoarthritis entry with osteoarthritis was “analgesic and anti-inflammatory effect”. Also, in assay [1], the “symptoms associated with seasonal allergic rhinitis” value was “may reduce symptoms”. Further, the “effect in murine macrophages (release of pro-inflammatory cytokines)” value in the assay on murine macrophages is listed as “anti-inflammatory effect”.

`NC(=O)c1cccnc1` [Nicotinamide oral (NC), nicotinamide]: in the assay with Solar Keratosis, the “qualitative assessment of the treatment of symptoms: Solar Keratosis” value is “+”. In the assay on psoriasis, the “qualitative assessment of the treatment of symptoms: Psoriasis” value is “+”.

Take `N[C@H]1C(O)O[C@H](CO)[C@@H](O)[C@@H]1O` (some centres unmarked) [glucosamine]: the effect in osteoarthritis entry with osteoarthritis was “may improve the symptoms”. In addition, the “synthesis of proinflammatory mediators in chondrocytes” value in the assay on chondrocytes is on record as “inhibits the synthesis of proinflammatory mediators”.

On to `NCC(=O)O` [glycine], for which, in the assay on TNF-α production, the “immunomodulatory action, possibly by inhibiting TNF-α production” value is listed as “immunomodulatory action”.
